Converted amounts (≈) assume the structure as drawn. Where two headings read alike, the source gives them in different places.
Columns and labels:
[1] = test system: constitutive ERK phosphorylation in HCT-116 cells; assay: HCT-116 AlphaLISA SureFire pERK1/2 cellular assay; type: cell-based, human; conditions: Homo sapiens, HCT-116; HCT116 cells, 2 hr, Abs; read-out: pERK HCT116 (2 hr) Abs pIC50 (converted)
Experimental: HCT-116 AlphaLISA SureFire pERK1/2 Cellular Assay […] […] Assay read outs took place 2 or 24 hours after dosing with compounds. On the first day, HCT-116 cells were harvested, resuspended in growth medium (McCoys5A with Glutamax (Life Technologies 36600021) and 10% heat-inactivated fetal bovine serum (Sigma F9665)), and counted. Cells were plated in 100 μl per well in each well of a 96-well culture dish (Sigma CLS3598) to a final density of 30,000 (2 hr read) or 15,000 (24 hr read) cells per well and incubated over night at 37° C. and 5% CO2. On day 2, the growth medium was exchanged for dosing medium (McCoys5A with Glutamax (Life Technologies 36600021) and 1% heat-inactivated fetal bovine serum (Sigma F9665)) and the cells were dosed with compounds to produce a 10-point dose response, where the top concentration was 1 μM and subsequent concentrations were at 1/3 log dilution intervals. A matched DMSO control was included. The cells were subsequently incubated for either 2 or 24 hours at 37° C. and 5% CO2. After incubation, media was removed and the cells were incubated with lysis buffer containing phosphatase inhibitors for 15 minutes at room temperature. Cell lysates were transferred to a 12 area 96 well white Optiplate™ (Perkin Elmer 6005569) and incubated with anti-mouse IgG acceptor beads, a biotinylated anti-ERK1/2 rabbit antibody recognizing both phosphorylated and non-phosphorylated ERK1/2, a mouse antibody targeted to the Thr202/Tyr204 epitope and recognizing phosphorylated ERK proteins only, and streptavidin-coated donor beads. The biotinylated antibody binds to the streptavidin-coated donor beads and the phopsho-ERK1/2 antibody binds to the acceptor beads. […] Both antibodies bound to phosphorylated ERK proteins, bringing the donor and acceptor beads into close proximity. All data were analyzed using the Dotmatics or GraphPad Prism software packages. Inhibition of ERK phosphorylation was assessed by determination of the absolute IC50 value, which is defined as the concentration of compound required to decrease the level of phosphorylated ERK proteins by 50% when compared to DMSO control.

FeSSIF solubility assay = type: physicochemical; conditions: fed state simulated intestinal fluid (FeSSIF), thermodynamic from solid, pH 5 acetate buffer, 37° C., read-out: FESSIF Sol
Experimental: FeSSIF Solubility Assay 1 mL of fed state simulated intestinal fluid (FeSSIF), prepared using FaSSIF/FeSSIF/FaSSGF powder (Biorelevant.com) and pH 5 acetate buffer, was added to 1.0 mg of compound and then incubated for 24 h (Bioshake iQ, 650 rpm, 37° C.). Following filtration under positive pressure, the concentration of compound in solution was assessed by LC-UV in comparison to the response for a calibration standard of known concentration (250 μM). FeSSIF solubility results are described in Tables 1-2.

[2] = Plasma protein binding assay, human plasma (hPPB); type: in vitro ADME; conditions: 5 μM
Experimental: (§1) Plasma Protein Binding Assay The plasma protein binding was determined by the equilibrium dialysis method. A known concentration of compound (5 μM) in previously frozen human or mouse plasma (Sera Labs) was dialysed against phosphate buffer using a RED device (Life Technologies) for 4 hours at 37° C. The concentration of compound in the protein containing (PC) and protein free (PF) sides of the dialysis membrane were determined by LC-MS/MS and the % free compound was determined by equation 4. Data analysis was performed using Excel (Microsoft, USA). % free=(1−((PC−PF)/PC))×100 (4) hPPB (human plasma protein binding) and mPPB (mouse plasma protein binding) results are described in Tables 1-2.

[3] = Microsomal stability assay, mouse liver microsomes (MLM); type: in vitro ADME; conditions: 0.5 mg/mL protein, 1 μM substrate
Experimental: (§2) Microsomal Stability Assay
(§3) The stability studies were performed manually using the substrate depletion approach. Test compounds were incubated at 37° C. with cryo-preserved mouse or human liver microsomes (Corning) at a protein concentration of 0.5 mg·mL^−1 and a final substrate concentration of 1 μM. Aliquots were removed from the incubation at defined timepoints and the reaction was terminated by adding to ice-cold organic solvent. Compound concentrations were determined by LC-MS/MS analysis. The natural log of the percentage of compound remaining was plotted against each time point and the slope determined. The half-life (t1/2) and CLint were calculated using Equations 1 and 2, respectively.
(§4) HLM (human liver microsomes) and MLM (mouse liver microsomes) stability assay results are described in Tables 1-2.

[4] = Plasma protein binding assay, mouse plasma (mPPB); type: in vitro ADME; conditions: 5 μM
Experimental: as §1

[5] = Microsomal stability assay, human liver microsomes (HLM); type: in vitro ADME; conditions: 0.5 mg/mL protein, 1 μM substrate
Experimental: as §2, §3, §4

[6] = test system: RAF dimers in HCT-116 cells; assay: HCT-116 AlphaLISA SureFire pERK1/2 cellular assay (dimer); type: cell-based; conditions: Homo sapiens, HCT-116, 1 hr
Experimental: (§5) The human HCT-116 colorectal carcinoma cell line (ATCC CCL-247) endogenously expresses the KRAS^G13D mutation, which leads to constitutive activation of the MAP kinase pathway and phosphorylation of ERK. […] Assay read outs took place 2 or 24 hours after dosing with compounds. On the first day, HCT-116 cells were harvested, resuspended in growth medium (McCoys5A with Glutamax (Life Technologies 36600021) and 10% heat-inactivated fetal bovine serum (Sigma F9665)), and counted. Cells were plated in 100 μl per well in each well of a 96-well culture dish (Sigma CLS3598) to a final density of 30,000 (2 hr read) or 15,000 (24 hr read) cells per well and incubated over night at 37° C. and 5% CO2. On day 2, the growth medium was exchanged for dosing medium (McCoys5A with Glutamax (Life Technologies 36600021) and 1% heat-inactivated fetal bovine serum (Sigma F9665)) and the cells were dosed with compounds to produce a 10-point dose response, where the top concentration was 1 μM and subsequent concentrations were at 1/3 log dilution intervals. A matched DMSO control was included. The cells were subsequently incubated for either 2 or 24 hours at 37° C. and 5% CO2. After incubation, media was removed and the cells were incubated with lysis buffer containing phosphatase inhibitors for 15 minutes at room temperature. Cell lysates were transferred to a 12 area 96 well white Optiplate™ (Perkin Elmer 6005569) and incubated with anti-mouse IgG acceptor beads, a biotinylated anti-ERK1/2 rabbit antibody recognizing both phosphorylated and non-phosphorylated ERK1/2, a mouse antibody targeted to the Thr202/Tyr204 epitope and recognizing phosphorylated ERK proteins only, and streptavidin-coated donor beads. The biotinylated antibody binds to the streptavidin-coated donor beads and the phopsho-ERK1/2 antibody binds to the acceptor beads. Plates were read on an EnVision reader (Perkin Elmer) and excitation of the beads at 680 nm with a laser induced the release of singlet oxygen molecules from the donor beads that trigger energy transfer to the acceptor beads in close proximity, producing a signal that can be measured at […]. Both antibodies bound to phosphorylated ERK proteins, bringing the donor and acceptor beads into close proximity. All data were analyzed using the Dotmatics or GraphPad Prism software packages. Inhibition of ERK phosphorylation was assessed by determination of the absolute IC50 value, which is defined as the concentration of compound required to decrease the level of phosphorylated ERK proteins by 50% when compared to DMSO control.
HCT-116 AlphaLISA SureFire pERK1/2 Cellular Assay (Dimer)
The human HCT-116 colorectal carcinoma cell line (ATCC CCL-247) endogenously expresses the KRAS^G13D mutation, which leads to constitutive activation of the MAP kinase pathway and phosphorylation of ERK. First generation RAF inhibitors can promote RAF dimer formation in KRAS mutant tumours leading to a paradoxical activation of the pathway. To determine whether compounds can circumvent this problem and inhibit RAF dimers in HCT-116 cells, they were tested using AlphaLISA® SureFire® technology (Perkin Elmer p-ERK1/2 p-T202/Y204 assay kit ALSU-PERK-A10K). The main procedure is essentially the same as described above, with the following adjustments: Cells were seeded with the seeding density of 30,000 cells per well. On the second day (the day of dosing) no medium change was performed and the cells were dosed with 1 μM of Encorafenib for 1 hour (at 37° C. and 5% CO2) to induce RAF dimers and promote paradoxical dimer-dependent pERK signalling. After incubation, the cells were washed, 100 μl fresh growth medium was added, and cells were dosed with compounds of interest to produce a 10-point dose response, where the top concentration was 10 μM and subsequent concentrations are at 1/2 log dilution intervals. Cells were incubated for another hour at 37° C. and 5% CO2 before lysis and processing with the pERK AlphaLISA® SureFire® kit as described above. […]

[7] = test system: BRAF monomers in A375 cells; assay: A375 AlphaLISA SureFire pERK1/2 cellular assay (monomer); type: cell-based; conditions: Homo sapiens, A-375; A375 cells, 1 hr; read-out: pERK A375 (1 hr) pIC50 (converted)
Experimental: as §5
A375 AlphaLISA SureFire pERK1/2 Cellular Assay (Monomer)
The human A375 melanoma cell line (ATCC CRL-1619) endogenously expresses the BRAF^V600E mutation, which leads to constitutive activation of the MAP kinase pathway and phosphorylation of ERK. In BRAF^V600E mutant tumours, BRAF signals as a monomer to activate ERK. To determine whether compounds can inhibit BRAF monomers in A375 cells, they were tested using AlphaLISA® SureFire® technology (Perkin Elmer p-ERK1/2 p-T202/Y204 assay kit ALSU-PERK-A10K). The main procedure is essentially the same as described above for HCT-116 cells, with the following adjustments: The A375 cells were cultivated and dosed in Dulbecco's modified Eagle's medium containing 4.5 g/L D-glucose (Sigma D6546), 10% heat-inactivated fetal bovine serum (Sigma F9665), and 1% Sodium-Pyruvate (Sigma S8636), and seeded with a seeding density of 30,000 cells per well. No media exchange was performed before dosing with compounds to produce a 10-point dose response, where the top concentration was 10 μM and subsequent concentrations were at 1/2 log dilution intervals. Subsequently, the cells were incubated for 1 hour at 37° C. and 5% CO2 before lysis.

[8] = equilibrium dialysis 4 hours at 37° C.
[9] = HCT116 cells pre-dosed with 1 μM Encorafenib, read-out: pERK HCT116 dimer (1 hr) pIC50 (converted)
[10] = equilibrium dialysis 4 hours 37° C.

| SMILES | IC50 [1] [nM] | solubility thermodynamic at 24 h (FeSSIF solubility assay) [µg/mL] | hPPB (% free) [2, 10] [% free] | microsomal CLint at 1 μM [3] [µL/min/mg] | mPPB (% free) [4, 10] [% free] | IC50 [7] [nM] | microsomal CLint at 1 μM [5] [µL/min/mg] | also measured |
| --- | --- | --- | --- | --- | --- | --- | --- | --- |
| COc1ncc(-c2c[nH]c(C3COc4ccc(Oc5ccnc6c5CCC(=O)N6)cc4C3)n2)c(OC)n1 (stereo not drawn) [Compound 18, 5-[3-[4-(2,4-dimethoxypyrimidin-5-yl)-1H-imidazol-2-yl]chroman-6-yl]oxy-3,4-dihydro-1H-1,8-naphthyridin-2-one] | – | – | 1.2 | 32.9 | 2.5 | 10000 | 71.1 | IC50 [6, 9]: 3630 nM |
| Cn1cc(-c2c[nH]c(C3COc4ccc(Oc5ccnc6c5CCC(=O)N6)cc4C3)n2)cn1 (stereo not drawn) [Compound 108, 5-[3-[4-(1-methylpyrazol-4-yl)-1H-imidazol-2-yl]chroman-6-yl]oxy-3,4-dihydro-1H-1,8-naphthyridin-2-one] | > 1000 | – | – | – | – | 6310 | – | IC50 ([6]; HCT116 cells, dimer, read-out: pERK HCT116 dimer (1 hr) plC50 (converted)): 389 nM |
| O=C1CCc2c(Oc3ccc4c(c3)CC(c3nc(-c5ccccc5F)c[nH]3)CO4)ccnc2N1 (stereo not drawn) [Compound 3, 5-[3-[4-(2-fluorophenyl)-1H-imidazol-2-yl]chroman-6-yl]oxy-3,4-dihydro-1H-1,8-naphthyridin-2-one] | – | – | 0.2 | 34.4 | 0.5 | 43.7 | 30.3 | IC50 [6, 9]: 112 nM |
| CN1CCN(Cc2cc(C(F)(F)F)c3nc(C4COc5ccc(Oc6ccnc7c6CCC(=O)N7)cc5C4)[nH]c3c2)CC1 (stereo not drawn) [Compound 28] | – | – | 0.1 | 31.1 | 0.5 | 1820 | 68.1 | – |

Continued, in another order:

| IC50 [1] [nM] | solubility thermodynamic at 24 h (FeSSIF solubility assay) [µg/mL] | SMILES | hPPB (% free) [2, 10] [% free] | microsomal CLint at 1 μM [3] [µL/min/mg] | mPPB (% free) [4, 10] [% free] | IC50 [7] [nM] | microsomal CLint at 1 μM [5] [µL/min/mg] | also measured |
| --- | --- | --- | --- | --- | --- | --- | --- | --- |
| > 1000 | < 1.3 | Cc1cc(-c2ccc3[nH]c(N4CCc5ccc(Oc6ccnc7c6CCC(=O)N7)cc5C4)nc3c2)n(C)n1 [Compound 163] | – | – | – | – | – | – |
| > 1000 | – | c1ccc(-c2c[nH]c(C3COc4ccc(Oc5ccnc(Nc6nccs6)c5)cc4C3)n2)cc1 (stereo not drawn) [Compound 141] | – | – | – | – | – | hPPB (% free) [2, 8]: <0.1 % free; microsomal CLint at 1 μM ([3]; 37° C.): 21.8 µL/min/mg; mPPB (% free) [4, 8]: 0.5 % free; microsomal CLint at 1 μM ([5]; 37° C.): 1 µL/min/mg |
| > 1000 | 12.2 (≈ 24.8 µM) | Cn1ncc2cc(-c3c[nH]c(C4COc5ccc(Oc6ccnc7c6CCC(=O)N7)cc5C4)n3)ccc21 (stereo not drawn) [Compound 131, 5-[3-[4-(1-methylindazol-5-yl)-1H-imidazol-2-yl]chroman-6-yl]oxy-3,4-dihydro-1H-1,8-naphthyridin-2-one] | – | – | – | – | – | – |
| 562 | < 1.1 | CCCc1ccc2[nH]c(N3CCc4ccc(Oc5ccnc6c5CCC(=O)N6)cc4C3)nc2c1 [Compound 161, 5-[[2-(5-propyl-1H-benzimidazol-2-yl)-3,4-dihydro-1H-isoquinolin-7-yl]oxy]-3,4-dihydro-1H-1,8-naphthyridin-2-one] | – | – | – | – | – | – |
| 741 | – | O=C(NC1CC1)c1cc(Oc2ccc3c(c2)CC(c2nc(-c4ccccc4)c[nH]2)CO3)ccn1 (stereo not drawn) [Compound 158, N-cyclopropyl-4-[3-(4-phenyl-1H-imidazol-2-yl)chroman-6-yl]oxy-pyridine-2-carboxamide] | – | – | – | – | – | hPPB (% free) [2, 8]: 0.3 % free; microsomal CLint at 1 μM ([3]; 37° C.): 62.8 µL/min/mg; mPPB (% free) [4, 8]: 0.2 % free; microsomal CLint at 1 μM ([5]; 37° C.): 21.3 µL/min/mg |

Source: US12304912B2, “Fused bicyclic RAF inhibitors and methods for use thereof” (Jazz Pharmaceuticals Ireland Limited, priority 2020, dated 2025)
